According to PubChem BioAssay AID276 (DTP/NCI, 2004):
Several values for one entry are separate records, joined by “and”; a condition that tells them apart may be missing. Equal values may be shown once. Inconclusive results and toxic doses are left out.

Tested on: B6C3F1 mice, Lewis lung carcinoma iv, survival T/C
Assay: NCI In Vivo Anticancer Drug Screen. Data for tumor model Lewis Lung Carcinoma (intravenous) in B6C3F1 mice
Conditions: endpoint: median survival time, schedule: Q01DX009 (ip), higher = longer survival
How it was run: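 Tumors were transplanted into mice, which were then dosed with compound or vehicle. Survival was recorded in each group, and the treated figure was divided by the control figure.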

[1] = dose: 6.25 mg/kg/injection, vehicle: saline with Tween-80
[2] = dose: 12.5 mg/kg/injection, vehicle: saline with Tween-80
[3] = dose: 25.0 mg/kg/injection, vehicle: saline with Tween-80
[4] = dose: 50.0 mg/kg/injection, vehicle: saline with Tween-80
[5] = dose: 100.0 mg/kg/injection, vehicle: saline with Tween-80
[6] = dose: 5.0 mg/kg/injection, vehicle: saline
[7] = dose: 10.0 mg/kg/injection, vehicle: saline
[8] = dose: 1.5 mg/kg/injection, vehicle: Klucel (hydroxypropylcellulose) (HPC)
[9] = dose: 3.0 mg/kg/injection, vehicle: Klucel (hydroxypropylcellulose) (HPC)
[10] = dose: 6.25 mg/kg/injection, vehicle: Klucel (hydroxypropylcellulose) (HPC)
[11] = dose: 25.0 mg/kg/injection, vehicle: saline

With CC(=O)Nc1ccc(Nc2ccc(C(=C3C=CC(=[N+](C)CCC#N)C=C3)c3ccc(N(C)CCC#N)cc3)cc2)cc1 the T/C (dose: 0.39 mg/kg/injection, vehicle: saline with Tween-80) was 102 % of control, the T/C (dose: 0.78 mg/kg/injection, vehicle: saline with Tween-80) was 102 % of control and the T/C (dose: 1.56 mg/kg/injection, vehicle: saline with Tween-80) was 98 % of control. For the same molecule, the T/C (dose: 3.12 mg/kg/injection, vehicle: saline with Tween-80) was 104 % of control, the T/C [1] was 97 % of control and the T/C [2] was 105 % of control.
With COc1cccc2c1C(=O)c1c(O)c3c(c(O)c1C2=O)C[C@H](O)C[C@@H]3OC1CC(N)C(O)C(C)O1 (some centres undefined) the T/C (dose: 0.75 mg/kg/injection, vehicle: water) was 100 % of control, the T/C (dose: 1.5 mg/kg/injection, vehicle: water) was 104 % of control and the T/C (dose: 3.0 mg/kg/injection, vehicle: water) was 100 % of control. The T/C (dose: 6.0 mg/kg/injection, vehicle: water) was 104 % of control.
With Nc1nc(N)c2cc(S(=O)(=O)c3ccccc3)ccc2n1 the T/C [3] was 98 % of control, the T/C [4] was 98 % of control and the T/C [5] was 99 % of control.
With NC(Cc1ccc(N(CCCl)CCCl)cc1)C(=O)O (centres undefined) the T/C (dose: 1.0 mg/kg/injection, vehicle: saline with Tween-80) was 98 % of control, the T/C (dose: 2.0 mg/kg/injection, vehicle: saline with Tween-80) was 100 % of control and the T/C (dose: 4.0 mg/kg/injection, vehicle: saline with Tween-80) was 104 % of control. For the same molecule, the T/C (dose: 16.0 mg/kg/injection, vehicle: saline with Tween-80) was 101 % of control.
For CCCCNC(C)[C@]1(O)Cc2c(O)c3c(c(O)c2[C@@H](OC2CC(N)C(O)C(C)O2)C1)C(=O)c1c(OC)cccc1C3=O (some centres undefined), the T/C (dose: 0.62 mg/kg/injection, vehicle: water) was 107 % of control, the T/C (dose: 1.25 mg/kg/injection, vehicle: water) was 114 % of control and the T/C (dose: 2.5 mg/kg/injection, vehicle: water) was 103 % of control. The T/C (dose: 5.0 mg/kg/injection, vehicle: water) was 115 % of control.
NC(=O)c1ccc[n+](Cc2c(Cl)cccc2Cl)c1 was tested, and the T/C [6] was 104 % of control, the T/C [7] was 105 % of control and the T/C (dose: 20.0 mg/kg/injection, vehicle: saline) was 104 % of control. The T/C (dose: 40.0 mg/kg/injection, vehicle: saline) was 91 % of control.
In the case of C/C(=N\N=C(/[Se])N1CC2CCC(CC2)C1)c1ccccn1, the T/C [8] is reported as 106 % of control, the T/C [9] is reported as 103 % of control and the T/C [10] is reported as 110 % of control.
With CN(N=O)C(N)=O the T/C (dose: 3.0 mg/kg/injection, vehicle: saline) was 123 % of control and the T/C [11] was 107 % of control.
With NC(=S)c1ncn(C2OC(CO)C(O)C2O)c1N (centres undefined) the T/C (dose: 12.5 mg/kg/injection, vehicle: suspension in saline) was 100 % of control, the T/C (dose: 25.0 mg/kg/injection, vehicle: suspension in saline) was 99 % of control and the T/C (dose: 50.0 mg/kg/injection, vehicle: suspension in saline) was 106 % of control. For the same molecule, the T/C (dose: 100.0 mg/kg/injection, vehicle: suspension in saline) was 110 % of control and the T/C (dose: 200.0 mg/kg/injection, vehicle: suspension in saline) was 116 % of control.
In the case of C[C@@H]1C[C@@H]([C@H](O)CC2CC(=O)NC(=O)C2)C(=O)[C@@H](C)C1, the T/C (dose: 6.25 mg/kg/injection, vehicle: saline) is reported as 100 % of control, the T/C (dose: 12.5 mg/kg/injection, vehicle: saline) is reported as 105 % of control and the T/C [11] is reported as 102 % of control.
With O=NN(CCCl)C(=O)NCCCl the T/C [8] was 105 % of control, the T/C (dose: 1.5 mg/kg/injection, vehicle: saline + alcohol) was 107 % of control and the T/C [9] was 120 % of control. The T/C (dose: 3.0 mg/kg/injection, vehicle: saline + alcohol) was 121 % of control, the T/C (dose: 5.0 mg/kg/injection, vehicle: saline with Tween-80) was 303 % of control and the T/C (dose: 6.0 mg/kg/injection, vehicle: saline + alcohol) was 152 % of control. The T/C (dose: 10.0 mg/kg/injection, vehicle: saline with Tween-80) was 181 % of control, the T/C (dose: 12.0 mg/kg/injection, vehicle: Klucel (hydroxypropylcellulose) (HPC)) was 114 % of control and the T/C (dose: 12.0 mg/kg/injection, vehicle: saline + alcohol) was 180 % of control.
With O=C(NC1CCCCC1)OCc1c(COC(=O)NC2CCCCC2)c(-c2ccc(Cl)c(Cl)c2)n2c1CCC2 the T/C [3] was 100 % of control and 108 % of control, the T/C [4] was 102 % of control and 105 % of control and the T/C [5] was 95 % of control and 108 % of control. For the same molecule, the T/C (dose: 200.0 mg/kg/injection, vehicle: saline with Tween-80) was 106 % of control and 113 % of control and the T/C (dose: 400.0 mg/kg/injection, vehicle: saline with Tween-80) was 110 % of control and 120 % of control.
With C=C(C)[C@H]1CN[C@H](C(=O)O)[C@H]1CC(=O)O the T/C (dose: 0.31 mg/kg/injection, vehicle: saline) was 113 % of control, the T/C (dose: 0.62 mg/kg/injection, vehicle: saline) was 103 % of control and the T/C (dose: 1.25 mg/kg/injection, vehicle: saline) was 112 % of control. For the same molecule, the T/C (dose: 2.5 mg/kg/injection, vehicle: saline) was 100 % of control, the T/C [6] was 112 % of control and the T/C [7] was 107 % of control.
For Nc1ccn(C2OC(CO)C(O)C2O)c(=O)n1 (centres undefined), the T/C (dose: 1.0 mg/kg/injection, vehicle: saline) was 98 % of control, the T/C (dose: 2.0 mg/kg/injection, vehicle: saline) was 97 % of control and the T/C (dose: 4.0 mg/kg/injection, vehicle: saline) was 100 % of control. The T/C (dose: 15.0 mg/kg/injection, vehicle: saline) was 110 % of control, the T/C (dose: 50.0 mg/kg/injection, vehicle: saline) was 160 % of control and the T/C (dose: 100.0 mg/kg/injection, vehicle: saline) was 203 % of control.
For CCCC(=O)OCc1cc(=O)n(C)c2c3c4c(cc12)c(C)cc(=O)n4CO3, the T/C (dose: 3.12 mg/kg/injection, vehicle: Klucel (hydroxypropylcellulose) (HPC)) was 91 % of control, the T/C [10] was 97 % of control and the T/C (dose: 12.5 mg/kg/injection, vehicle: Klucel (hydroxypropylcellulose) (HPC)) was 92 % of control. For the same molecule, the T/C (dose: 50.0 mg/kg/injection, vehicle: Klucel (hydroxypropylcellulose) (HPC)) was 118 % of control.
With O=C(Nc1nncs1)c1cccs1 the T/C [2] was 111 % of control, the T/C [3] was 93 % of control and the T/C [4] was 96 % of control. For the same molecule, the T/C [5] was 103 % of control.
In the case of Cc1cc(=O)n2c3c(c4c(cc13)c(CN(C)C)cc(=O)n4C)OC2, the T/C [1] is reported as 106 % of control, the T/C [2] is reported as 105 % of control and the T/C [3] is reported as 109 % of control. The T/C [4] was 123 % of control.
For O=NN(CCCl)C(=O)NC1CCCCC1, the T/C (dose: 1.0 mg/kg/injection, vehicle: Klucel (hydroxypropylcellulose) (HPC)) was 98 % of control, the T/C (dose: 2.0 mg/kg/injection, vehicle: Klucel (hydroxypropylcellulose) (HPC)) was 112 % of control and 120 % of control and the T/C (dose: 2.0 mg/kg/injection, vehicle: other) was 108 % of control. For the same molecule, the T/C (dose: 4.0 mg/kg/injection, vehicle: other) was 100 % of control, the T/C (dose: 8.0 mg/kg/injection, vehicle: Klucel (hydroxypropylcellulose) (HPC)) was 295 % of control and 314 % of control and the T/C (dose: 8.0 mg/kg/injection, vehicle: other) was 100 % of control. For the same molecule, the T/C (dose: 16.0 mg/kg/injection, vehicle: other) was 119 % of control and the T/C (dose: 32.0 mg/kg/injection, vehicle: other) was 166 % of control.
